Experimental data taken from patent US12005127B2, “DNA-PK inhibitors” (VERTEX PHARMACEUTICALS INCORPORATED, priority 2018, dated 2024).

What was measured:
DNA-PK [1] = biological target: T1, DNA-PK (Homo sapiens, UniProt P78527); assay: DNA-PK cellular assay (pDNA-PK Ser2056 sandwich ELISA, NCS-induced DSBs); format: cell-based; parameters: endogenous in cells; host or cells: A549 (human NSCLC); conditions: pDNA-PK (Ser2056) in A549 cells, NCS 50 ng/ml, 15 minutes
Source text: DNA-PK is recruited to and activated by double-strand breaks (DSB) in DNA and plays a critical role in the non-homologous end-joining (NHEJ) repair mechanism. Upon activation, DNA-PK undergoes rapid autophosphorylation at Ser2056. The measure of pDNA-PK (Ser2056) in response to DNA DSBs provides a cellular signaling assay to evaluate potential DNA-PK kinase inhibitors.
Neocarzinostatin (NCS) was used as a radiomimetic to induce DNA DSBs. The sandwich ELISA used the Meso Scale Discovery electrochemiluminescence technology platform which typically provides greater sensitivity than traditional ELISA formats.
A549 (human NSCLC) cells are plated at 25,000 cells/well in 100 uL of DMEM (Invitrogen cat #11995-040) supplemented with 1% Pen/Strep (Invitrogen cat #15070-063) and 10% FBS (Hyclone cat #SH30071.03HI) on black clear bottom 96 well plates (Costar #3904) and allowed to adhere overnight at 37° C. in 5% CO2. The following day, the compounds and NCS solutions are prepared by adding 100 ul of DMEM growth media per well in a Corning polypropylene V-bottom deep well plate (cat #3357). The HP Compound Dilution D300 instrument was used to add compounds to the appropriate wells using the setting logarithmic and 16-point titration singlet.
The DMEM NCS solution was prepared by adding NCS to DMEM media at 200 ng/ml (final assay concentration, 50 ng/ml). 100 ul of the DMEM/NCS solution is added to the wells with the compounds. 100 ul of this solution is then immediately added to the A549 cells. The cells are then incubated for 15 minutes at 37° C.
The complete lysis buffer is prepared by adding 1% Phosphatase inhibitor (Sigma cat #P2850) and 1% Protease Inhibitor (Sigma cat #P8340) to the Lanthascreen cellular assay lysis buffer (Invitrogen cat #PV5598). The media from the plate was removed by flicking and patting dry. 60 uL/well of the complete lysis buffer is added to each well. These plates are then incubated for at least 5 minutes in the lysis buffer at room temperature to ensure complete lysis. At this point the lysates can be transferred to prepared ELISA plates.
The prepared ELISA plates were prepared blocking the Mesoscale Goat-Anti-Mouse (GAM) plates with 150 uL/well of 3% Blocker A (Mesoscale cat #R93-BA) for one hour at room temperature with shaking. The capture antibody is prepared by diluting the mouse monoclonal anti-total DNA-PK (AbCAM cat #ab1832) to 3 ug/mL in 1% Blocker A. The blocked plates rinsed once with 200 uL D-PBS. The capture antibody (25 ul/well) was added to each well and allowed to incubate for an hour at room temperature while shaking. This was rinsed once with 200 ul D-PBS before adding 25 uL of the prepared cell lysate from the cell plates to the Mesoscale GAM ELISA plate. The lysate is then incubated on the plates for one hour at room temperature with shaking. The detection antibody (Epitomics rabbit anti-pS2056-DNA-PK) is prepared at a 1/1000 dilution (to a final concentration of 450 ng/mL) in 1% Blocker A. The GAM plates are washed once with 200 uL of D-PBS and then 25 uL/well of the detection antibody is added to the plate. This incubates for one hour at room temperature with shaking. The Sulfotag is prepared by adding Sulfo-Tag Goat-Anti-Rabbit antibody (Mesoscale cat #R32AB-1) at a 1/500 dilution (1 ug/mL) to 1% Blocker A. The GAM plates are washed with 200 uL of D-PBS and then 25 uL of the Sulfotag preparation is added to each well. Once the plates have been incubated with the final solution, the Sulfotag, for 1 hour, they are washed once with 200 uL of D-PBS. The 1× Read Buffer (Mesoscale cat #R32-TC) is made by diluting the 4× buffer in ddH20. 150 uL of 1× buffer is added to each well of the GAM plate and then the plate is read on the Sector Imager 2400. The readout (electrochemiluminescence) was plotted against the concentration of each compound and the IC50s were generated using Prism software (GraphPad Prism version 6.0e for Macintosh). […]

DNA-PK [2] = biological target: T1, DNA-PK; assay: DNA-PK inhibition assay (radiometric 33P-ATP kinase assay); format: biochemical; conditions: competitive tight-binding fit
Description: Compounds were screened for their ability to inhibit DNA-PK kinase using a standard radiometric assay. Briefly, in this kinase assay the transfer of the terminal ^33P-phosphate in ^33P-ATP to a peptide substrate is interrogated. The assay was carried out in 384-well plates to a final volume of 50 μL per well containing approximately 6 nM DNA-PK, 50 mM HEPES (pH 7.5), 10 mM MgCl2, 25 mM NaCl, 0.01% BSA, 1 mM DTT, 10 μg/mL sheared double-stranded DNA (obtained from Sigma), 0.8 mg/mL DNA-PK peptide (Glu-Pro-Pro-Leu-Ser-Gln-Glu-Ala-Phe-Ala-Asp-Leu-Trp-Lys-Lys-Lys, obtained from American Peptide), and 100 μM ATP. Accordingly, compounds of the invention were dissolved in DMSO to make 10 mM initial stock solutions. Serial dilutions in DMSO were then made to obtain the final solutions for the assay. A 0.75 μL aliquot of DMSO or inhibitor in DMSO was added to each well, followed by the addition of ATP substrate solution containing ^33P-ATP (obtained from Perkin Elmer). The reaction was started by the addition of DNA-PK, peptide and ds-DNA. After 45 min, the reaction was quenched with 25 μL of 5% phosphoric acid. The reaction mixture was transferred to MultiScreen HTS 384-well PH plates (obtained from Millipore), allowed to bind for one hour, and washed three times with 1% phosphoric acid. Following the addition of 50 μL of Ultima Gold™ high efficiency scintillant (obtained from Perkin Elmer), the samples were counted in a Packard TopCount NXT Microplate Scintillation and Luminescence Counter (Packard BioScience). The Ki values were calculated using Microsoft Excel Solver macros to fit the data to the kinetic model for competitive tight-binding inhibition. In Tables 1 and 2 below, Ki of less than 0.001 micromolar for the inhibition of DNA-PK is indicated as “A”; Ki of equal to or greater than 0.001 micromolar and less than 0.01 micromolar for the inhibition of DNA-PK as “B”; Ki of equal to or greater than 0.01 micromolar and less than 0.1 micromolar for the inhibition of DNA-PK as “C”; Ki of equal to or greater than 0.1 micromolar and less than 1 micromolar for the inhibition of DNA-PK for “D”; and Ki of equal to or greater than 1 micromolar as “E.”

Row | Structure (SMILES) | IC50 (DNA-PK [1]; Table 1) [nM] | Ki (DNA-PK [2]; Table 1, 100 μM ATP) [µM] | Ki (DNA-PK [2]; Table 2, 100 μM ATP) [µM] | IC50 (DNA-PK [1]; Table 2) [nM]
1 | Cc1nc2c(c(N[C@H]3CC[C@@H](Oc4cc(N5CCOCC5)cc5ncncc45)CC3)n1)OCC2 [Compound 1, 2-methyl-N-[4-(7-morpholinoquinazolin-5-yl)oxycyclohexyl]-6,7-dihydrofuro[3,2-d]pyrimidin-4-amine] | < 100 | < 0.001 |  | 
2 | Cc1nc2c(c(N[C@H]3CC[C@@H](Oc4cc(N5CCOCC5)cc5ncnc(C#N)c45)CC3)n1)OCC2 [Compound 2, 5-[4-[(2-methyl-6,7-dihydrofuro[3,2-d]pyrimidin-4-yl)amino]cyclohexoxy]-7-morpholino-quinazoline-4-carbonitrile] | < 100 | < 0.001 |  | 
3 | Cc1nccc(N[C@H]2CC[C@@H](Oc3cc(N4CCOCC4)cc4ncncc34)CC2)n1 [Compound 3, 2-methyl-N-[4-(7-morpholinoquinazolin-5-yl)oxycyclohexyl]pyrimidin-4-amine] | < 100 | < 0.001 |  | 
4 | Cc1nccc(N[C@H]2CC[C@@H](Oc3cc(N4CCOCC4)cc4ncnc(C#N)c34)CC2)n1 [Compound 4, 5-[4-[(2-methylpyrimidin-4-yl)amino]cyclohexoxy]-7-morpholino-quinazoline-4-carbonitrile] | < 100 | < 0.001 |  | 
5 | COc1ncnc2cc(N3CCOCC3)cc(O[C@H]3CC[C@@H](Nc4nc(C)nc5c4OCC5)CC3)c12 [Compound 5, N-[4-(4-methoxy-7-morpholino-quinazolin-5-yl)oxycyclohexyl]-2-methyl-6,7-dihydrofuro[3,2-d]pyrimidin-4-amine] | < 100 | < 0.001 |  | 
6 | COc1ncnc2cc(N3CCOCC3)cc(O[C@H]3CC[C@@H](Nc4ccnc(C)n4)CC3)c12 [Compound 6, N-[4-(4-methoxy-7-morpholino-quinazolin-5-yl)oxycyclohexyl]-2-methyl-pyrimidin-4-amine] | < 100 | < 0.001 |  | 
7 | O=C1c2ccccc2C(=O)N1[C@H]1CC[C@@H](Oc2cc(N3CCOCC3)cc3ncncc23)CC1 [Compound 7, 2-[4-(7-morpholinoquinazolin-5-yl)oxycyclohexyl]isoindoline-1,3-dione] | 100 to 1000 | 0.001 to 0.01 |  | 
8 | CNC(=O)c1ccnc(N[C@H]2CC[C@@H](Oc3cc(N4CCOCC4)cc4ncncc34)CC2)n1 [Compound 8, N-methyl-2-[[4-(7-morpholinoquinazolin-5-yl)oxycyclohexyl]amino]pyrimidine-4-carboxamide] | < 100 | < 0.001 |  | 
9 | CNC(=O)c1ccnc(N[C@H]2CC[C@@H](Oc3cc(N4CCOCC4)cc4ncnc(OC)c34)CC2)n1 [Compound 9, 2-[[4-(4-methoxy-7-morpholino-quinazolin-5-yl)oxycyclohexyl]amino]-N-methyl-pyrimidine-4-carboxamide] | < 100 | < 0.001 |  | 
10 | Cc1ncc2c(O[C@H]3CC[C@@H](NC(=O)OC(C)(C)C)CC3)cc(N3CCOCC3)cc2n1 [Compound 10, tert-butyl N-[4-(2-methyl-7-morpholino-quinazolin-5-yl)oxycyclohexyl]carbamate] | ≥ 1000 | 0.001 to 0.01 |  | 
11 | CNC(=O)c1ccnc(N[C@H]2CC[C@@H](Oc3cc(N4CCOCC4)cc4nc[nH]c(=O)c34)CC2)n1 [Compound 11, N-methyl-2-[[4-[(7-morpholino-4-oxo-3H-quinazolin-5-yl)oxy]cyclohexyl]amino]pyrimidine-4-carboxamide] | ≥ 1000 | < 0.001 |  | 
12 | Cc1nccc(N[C@H]2CC[C@@H](Oc3cc(N4CCOCC4)cc4nc(C)ncc34)CC2)n1 [Compound 12, 2-methyl-N-[4-(2-methyl-7-morpholino-quinazolin-5-yl)oxycyclohexyl]-pyrimidin-4-amine] | 100 to 1000 | 0.001 to 0.01 |  | 
13 | Cc1nccc(N[C@H]2CC[C@@H](Oc3cc(N4CCOCC4)cc4ncn(C)c(=O)c34)CC2)n1 [Compound 21, 3-methyl-5-[4-[(2-methylpyrimidin-4-yl)amino]cyclohexoxy]-7-morpholino-quinazolin-4-one] | 100 to 1000 |  |  | 
14 | CNC(=O)c1ccnc(N[C@H]2CC[C@@H](Oc3cc(N4CCOCC4)cc4ncn(C)c(=O)c34)CC2)n1 [Compound 25, N-methyl-2-[[4-(3-methyl-7-morpholino-4-oxo-quinazolin-5-yl)oxycyclohexyl]amino]pyrimidine-4-carboxamide] | 100 to 1000 |  |  | 
15 | Cn1cnc(C(=O)N[C@H]2CC[C@@H](Oc3cc(N4CCOCC4)cc4ncncc34)CC2)c1 [Compound 26, 1-methyl-N-((1s,4s)-4-((7-morpholinoquinazolin-5-yl)oxy)cyclohexyl)-1H-imidazole-4-carboxamide] | 100 to 1000 |  |  | 
16 | c1cnc(O[C@H]2CC[C@@H](Oc3cc(N4CCOCC4)cc4ncncc34)CC2)nc1 [Compound 27, 4-[5-cis-(4-pyrimidin-2-yloxycyclohexoxy)quinazolin-7-yl]morpholine] | < 100 |  |  | 
17 | c1cnc(O[C@H]2CC[C@H](Oc3cc(N4CCOCC4)cc4ncncc34)CC2)nc1 [Compound 28, 4-[5-trans-(4-pyrimidin-2-yloxycyclohexoxy)quinazolin-7-yl]morpholine] | < 100 |  |  | 
18 | COc1ccc(COc2cc(N3CCOCC3)cc3ncnc(Cl)c23)cc1 [Compound 54, 4-[4-chloro-5-[(4-methoxyphenyl)methoxy]quinazolin-7-yl]morpholine] |  |  | 0.01 to 0.1 | 
19 | COc1ccc(COc2cc(N3CCOCC3)cc3ncnc(C4CC4)c23)cc1 [Compound 56, 4-[4-cyclopropyl-5-[(4-methoxyphenyl)methoxy]quinazolin-7-yl]morpholine] |  |  |  | 100 to 1000
